Source: the supplement of paper PMC10307832

What was measured:
Assay in all cases: relative viability (nuclei count vs DMSO), 5 days (fraction); higher = more cells survive
Masitinib + Trametinib = compound: Cc1ccc(NC(=O)c2ccc(CN3CCN(C)CC3)cc2)cc1Nc1nc(-c2cccnc2)cs1 [Masitinib] + CC(=O)Nc1cccc(-n2c(=O)n(C3CC3)c(=O)c3c(Nc4ccc(I)cc4F)n(C)c(=O)c(C)c32)c1 [Trametinib] (partner 0.02 µM)
Method in brief: (§1)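 After 5 days of treatment, lung cancer cells in 1536-well plates were fixed and stained in a single step (final 0.05% Triton X-100, 1% formaldehyde, 1 ug/ml Hoechst) and their nuclei counted on 4× images. Treatment had been applied by pin tool the day after seeding as one drug alone or as a fixed anchor-drug dose with five library-drug doses (not always all listed) in √10 steps. Relative viability is the nuclei count of treated wells divided by that of vehicle wells, and values are medians of duplicate plates.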

Masitinib + Pemetrexed = compound: Cc1ccc(NC(=O)c2ccc(CN3CCN(C)CC3)cc2)cc1Nc1nc(-c2cccnc2)cs1 [Masitinib] + Nc1nc2[nH]cc(CCc3ccc(C(=O)N[C@@H](CCC(=O)O)C(=O)O)cc3)c2c(=O)[nH]1 [Pemetrexed] (partner 0.2 µM)
Method in brief: as §1

Masitinib + Foretinib = compound: Cc1ccc(NC(=O)c2ccc(CN3CCN(C)CC3)cc2)cc1Nc1nc(-c2cccnc2)cs1 [Masitinib] + COc1cc2c(Oc3ccc(NC(=O)C4(C(=O)Nc5ccc(F)cc5)CC4)cc3F)ccnc2cc1OCCCN1CCOCC1 [Foretinib] (partner 0.25 µM)
Method in brief: as §1

[1] = compound: CC1=CC(=CC=C1)NC2=NC(=CS2)C3=CC=NC=C3 + Nc1nc2[nH]cc(CCc3ccc(C(=O)N[C@@H](CCC(=O)O)C(=O)O)cc3)c2c(=O)[nH]1 [Pemetrexed] (partner 0.2 µM)
Method in brief: as §1

| Cell Line | relative viability (Masitinib + Trametinib; first compound 0.01 µM) | relative viability (Masitinib + Trametinib; first compound 0.03162 µM) | relative viability (Masitinib + Trametinib; first compound 0.1 µM) | relative viability (Masitinib + Trametinib; first compound 0.3162 µM) | relative viability (Masitinib + Trametinib; first compound 1 µM) | relative viability (Masitinib + Pemetrexed; first compound 0.01 µM) | relative viability (Masitinib + Pemetrexed; first compound 0.03162 µM) | relative viability (Masitinib + Pemetrexed; first compound 0.1 µM) | relative viability (Masitinib + Pemetrexed; first compound 0.3162 µM) | relative viability (Masitinib + Pemetrexed; first compound 1 µM) | relative viability (Masitinib + Foretinib; first compound 0.01 µM) | relative viability (Masitinib + Foretinib; first compound 0.03162 µM) | relative viability (Masitinib + Foretinib; first compound 0.1 µM) | relative viability (Masitinib + Foretinib; first compound 0.3162 µM) | relative viability (Masitinib + Foretinib; first compound 1 µM) | relative viability ([1]; first compound 0.08 µM) | relative viability ([1]; first compound 0.253 µM) | relative viability ([1]; first compound 0.8 µM) | relative viability ([1]; first compound 2.53 µM) | relative viability ([1]; first compound 8 µM) |
| --- | --- | --- | --- | --- | --- | --- | --- | --- | --- | --- | --- | --- | --- | --- | --- | --- | --- | --- | --- | --- |
| HCC-827 | 0.508 | 0.532 | 0.539 | 0.603 | 0.547 | 0.264 | 0.278 | 0.255 | 0.185 | 0.257 | 1.03 | 1.05 | 1.06 | 1 | 1.06 | 0.283 | 0.274 | 0.282 | 0.256 | 0.272 |
| SW 1573 | 0.666 | 0.603 | 0.551 | 0.542 | 0.581 | 0.808 | 0.942 | 0.854 | 0.873 | 0.92 | 0.765 | 0.974 | 0.97 | 0.784 | 0.865 | 0.835 | 0.746 | 0.787 | 0.763 | 0.763 |
| NCI-H1993 | 0.483 | 0.437 | 0.578 | 0.508 | 0.538 | 0.622 | 0.58 | 0.582 | 0.483 | 0.502 | 0.864 | 0.862 | 0.828 | 0.638 | 0.742 | 0.507 | 0.517 | 0.618 | 0.547 | 0.578 |
| NCI-H1734 | 0.682 | 0.661 | 0.759 | 0.696 | 0.663 | 0.408 | 0.465 | 0.396 | 0.376 | 0.404 | 0.922 | 0.914 | 0.898 | 1.05 | 0.811 | 0.374 | 0.421 | 0.409 | 0.44 | 0.371 |
| NCI-H1666 | 0.807 | 0.893 | 0.873 | 0.565 | 0.788 | 0.943 | 0.842 | 0.885 | 0.708 | 0.77 | – | 0.889 | 0.91 | 1.03 | 1 | 0.787 | 0.749 | 0.603 | 0.738 | 0.674 |
| NCI-H460 | 0.13 | 0.121 | 0.139 | 0.13 | 0.13 | 0.0557 | 0.0629 | 0.0594 | 0.0647 | 0.0579 | 1.02 | 1.08 | 1.06 | 0.864 | 0.977 | 0.0627 | 0.0625 | 0.0614 | 0.0648 | 0.0687 |
| LCLC-103H | – | 0.624 | 0.693 | 0.713 | 0.669 | – | 0.465 | 0.416 | 0.469 | 0.424 | 0.743 | 0.684 | 0.773 | 0.703 | 0.735 | 0.415 | 0.434 | 0.45 | 0.46 | 0.488 |
| LCLC-97TM1 | 0.184 | 0.19 | 0.19 | 0.231 | 0.186 | 0.168 | 0.154 | 0.169 | 0.173 | 0.168 | – | 0.966 | 0.941 | 1.08 | 0.874 | 0.168 | 0.161 | 0.19 | 0.168 | 0.182 |
| NCI-H838 | 0.375 | 0.425 | 0.458 | 0.451 | 0.488 | 0.267 | 0.256 | 0.254 | 0.247 | 0.244 | 0.926 | 0.837 | 1.18 | 0.813 | 1.05 | 0.26 | 0.228 | 0.263 | 0.257 | 0.241 |
| NCI-H1437 | 0.511 | 0.507 | 0.52 | 0.494 | 0.449 | 0.312 | 0.355 | 0.37 | 0.325 | 0.311 | 1.26 | 1.26 | 1.3 | 1.13 | 1.27 | 0.349 | 0.326 | 0.27 | 0.31 | 0.283 |
| HOP-62 | 0.394 | 0.361 | 0.349 | 0.365 | 0.375 | 0.286 | 0.325 | 0.323 | 0.462 | 0.404 | 1.02 | 1.04 | 1.22 | 1.17 | 1.14 | 0.325 | 0.412 | 0.458 | 0.369 | 0.319 |
| NCI-H2087 | 0.176 | 0.213 | 0.214 | 0.153 | 0.178 | 0.642 | 0.666 | 0.66 | 0.555 | 0.703 | 1.26 | 0.907 | 1.18 | 1.11 | 1.17 | 0.637 | 0.623 | 0.591 | 0.63 | 0.711 |
